Laboratory results as given in patent US6710048B2, “Pyrazine derivatives as modulators of tyrosine kinases” (Ortho-McNeil Pharmaceutical, Inc., priority 2000, dated 2004).

How the values were obtained:
[1] = target: T1, MAP Kinase ERK-2 (Rattus norvegicus, UniProt P63086); assay: MAP Kinase ERK-2 selectivity assay; assay type: biochemical; conditions: Table 4 kinase selectivity; read-out: IC50, Assay 12 MAP Kinase ERK-2
T1 construct: polyhistidine (N); purchased BIOMOL SE-137; host or cells: E. coli
Method: (§1) Assays to test compound inhibition of other kinases were preformed using methods that measure the amount of phosphorylation of a biotinylated peptide substrate. Biotinylated peptide substrates were selected from the literature as appropriate for the enzyme being evaluated. […] Assay conditions vary slightly for each protein kinase, for example, insulin receptor kinase requires 10 mM MnCl2 for activity and Calmodulin-dependent protein kinase requires calmodulin and 2 mM CaCl2. The reaction mixture was dispensed into the wells of a streptavidin coated Flashplate and 1 μl drug stock in 100% DMSO was added to a 100 μl reaction volume resulting in a final concentration of 1% DMSO in the reaction. Enzyme was diluted in 50 mM Tris-HCl pH=8.0, 0.1% BSA and added to each well. The reaction was incubated for one hour at 30° C. in the presence of compound. After one hour the reaction mix was aspirated from the plate and the plate was washed with PBS containing 100 mM EDTA. The plate was read on a scintillation counter to determine ^33P-γ-ATP incorporated into the immobilized peptide. Test compounds were assayed in duplicate at 8 concentrations [100 tM, 10 μM, 1 μM, 100 nM, 10 nM, 1 nM, 100 μM, 10 μM]. A maximum and minimum signal for the assay was determined on each plate. The IC50 was calculated from the dose response curve of the percent inhibition of the maximum signal in the assay according to the formula [max signal−background/test compound signal−background (100)=% inhibition] by graphing the percent inhibition against the log concentration of test compound. Known inhibitor compounds appropriate for the kinase being assayed were also included on each plate.
(§2) VEGF-R (vascular endothelial growth factor receptor-2) is a fusion protein containing a polyhistidine tag at the N-terminus followed by amino acids 786-1343 of the rat VEGF-R2 kinase domain (GenBank Accession #U93306). CDK1 (cyclin dependent kinase 1) is isolated from insect cells expressing both the human CDK1 catalytic subunit and its positive regulatory subunit cyclin B (New England Biolabs, Beverly, Mass., Cat. #6020). CDK4 (cyclin dependent kinase 4) contains amino acids 769 to 921 of the mouse […] protein found in the GST-retinoblastoma protein construct (Santa Cruz Biotechnology, Santa Cruz, Calif.; Cat. #SC-4112). Insulin Receptor Kinase consists of residues 941-1313 of the cytoplasmic domain of the beta-subunit of the human insulin receptor (BIOMOL, Plymouth Meeting, Pa., Cat. #SE-195). Protein Kinase A is the catalytic subunit of cAMP dependent protein kinase-A purified from bovine heart (Upstate Biotech, Lake Placid, N.Y., Cat#14-114). PKC (protein kinase-C) is the gamma or beta isoform of the human protein produced in insect cells (BIOMOL, Plymouth Meeting, Pa., Cat. #SE-143). Casein Kinase 1 is a truncation at amino acid 318 of the C-terminal portion of the rat CK1 delta isoform produced in E.coli (New England Biolabs, Beverly, Mass., Cat. #6030). Casein Kinase 2 includes the alpha and beta subunits of the human CK2 protein produced in E.coli (New England Biolabs, Beverly, Mass., Cat. #6010). Calmodulin Kinase (calmodulin-dependent protein kinase 2) is a truncated version of the alpha subunit of the rat protein produced in insect cells (New England Biolabs, Beverly, Mass., Cat. #6060). Glycogen Synthase Kinase-3 is the beta isoform of the rabbit enzyme produced in E. coli (New England Biolabs, Beverly, Mass., Cat. #6040). MAP Kinase is the rat ERK-2 isoform containing a polyhistidine tag at the N-terminus produced in E. coli. and activated by phosphorylation with MEK1 prior to purification (BIOMOL, Plymouth Meeting, Pa., Cat. #SE-137). EGFR (epidermal growth factor receptor) is purified from human A431 cell membranes (Sigma, St. Louis, Mo., Cat.# E3641). PDGF-R (platelet derived growth factor receptor) is a fusion protein containing a polyhistidine tag at the N-terminus followed by nucleotides 1874-3507 of the human PDGF-R beta subunit kinase domain (Accession #M21616). […]

[2] = target: T2, PDGF-R (platelet derived growth factor receptor) (Homo sapiens, UniProt P09619); assay: PDGF-R kinase selectivity assay; assay type: biochemical; conditions: Table 4 kinase selectivity; read-out: IC50, Assay 14 PDGF-R
T2 construct: polyhistidine (N)
Method: as §1, §2

T1 sequence (P63086 whole entry): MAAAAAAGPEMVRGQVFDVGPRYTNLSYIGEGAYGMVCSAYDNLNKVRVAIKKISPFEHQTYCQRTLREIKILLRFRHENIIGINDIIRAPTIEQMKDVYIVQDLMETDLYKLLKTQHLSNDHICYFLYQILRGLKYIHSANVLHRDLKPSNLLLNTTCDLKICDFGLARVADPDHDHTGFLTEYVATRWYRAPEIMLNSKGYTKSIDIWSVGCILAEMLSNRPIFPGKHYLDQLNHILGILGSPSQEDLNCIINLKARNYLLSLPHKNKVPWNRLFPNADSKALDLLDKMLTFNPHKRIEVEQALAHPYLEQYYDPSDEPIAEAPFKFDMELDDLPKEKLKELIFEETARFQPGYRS
T2 sequence (P09619 554-1106 limits assumed): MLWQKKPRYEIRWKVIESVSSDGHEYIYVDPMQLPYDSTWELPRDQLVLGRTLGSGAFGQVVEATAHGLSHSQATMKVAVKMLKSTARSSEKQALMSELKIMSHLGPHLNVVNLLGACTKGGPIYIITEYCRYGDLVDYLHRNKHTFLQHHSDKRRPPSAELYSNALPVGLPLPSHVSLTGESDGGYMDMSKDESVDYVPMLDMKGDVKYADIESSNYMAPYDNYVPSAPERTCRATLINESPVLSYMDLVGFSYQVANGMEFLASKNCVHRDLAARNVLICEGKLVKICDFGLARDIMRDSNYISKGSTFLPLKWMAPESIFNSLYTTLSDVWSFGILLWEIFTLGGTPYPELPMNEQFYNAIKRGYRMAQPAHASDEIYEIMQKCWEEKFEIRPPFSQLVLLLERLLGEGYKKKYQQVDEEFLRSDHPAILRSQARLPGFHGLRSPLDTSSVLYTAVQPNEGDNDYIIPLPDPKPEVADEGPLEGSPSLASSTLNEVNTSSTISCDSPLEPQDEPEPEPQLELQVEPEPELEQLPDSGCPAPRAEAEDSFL

O=C(NCCCO)c1cncc(-c2cncc(Nc3cccc(Cl)c3)n2)c1 [Cmd 39]
IC50 [1]: > 100 µM
IC50 [2]: 2800 nM

Clc1cccc(Nc2cncc(-c3cncc(NCCCn4cncn4)c3)n2)c1 [Cmd 76]
IC50 [1]: > 100 µM
IC50 [2]: 725 nM

OCCCCNc1cncc(-c2cncc(Nc3cccc(Cl)c3)n2)c1 [Cmd 32]
IC50 [1]: > 100 µM
IC50 [2]: 2800 nM

OCCCNc1cncc(-c2cncc(Nc3cccc(Cl)c3)n2)c1 [Cmd 4]
IC50 [1]: > 100 µM

Clc1cccc(Nc2cncc(-c3cncc(NCCCn4cccn4)c3)n2)c1 [Cmd 75]
IC50 [1]: > 100 µM

Clc1cccc(Nc2cncc(-c3cncc(NCCCc4ccncc4)c3)n2)c1 [Cmd 71]
IC50 [1]: > 100 µM
IC50 [2]: 1000 nM

Clc1cccc(Nc2cncc(-c3cncc(NCCCN4CCCCC4)c3)n2)c1 [Cmd 73]
IC50 [1]: > 100 µM
IC50 [2]: 175 nM

Clc1cccc(Nc2cncc(-c3cncc(NCCCc4cccnc4)c3)n2)c1 [Cmd 72]
IC50 [1]: > 100 µM
IC50 [2]: 876 nM

CN(C)CCNc1cncc(-c2cncc(Nc3cccc(Cl)c3)n2)c1 [Cmd 33, N′-[5-[6-[(3-chlorophenyl)amino]pyrazinyl]-3-pyridinyl]-N^2,N^2-dimethyl-1,2-ethanediamine]
IC50 [1]: > 100 µM
IC50 [2]: 29200 nM

CN(C)CCCNc1cncc(-c2cncc(Nc3cccc(Cl)c3)n2)c1 [Cmd 35]
IC50 [1]: > 100 µM
IC50 [2]: 2500 nM
